Assay results reported in article PMC12745361, “Dysadherin/YAP axis fuels stem plasticity and immune escape in liver cancer” (Signal Transduction and Targeted Therapy, 2025).

Experiments:
Assay type in all cases: cell-based, human
PLC/PRF/5 cells [1] = test: Immunoblot of FAK/YAP signalling and pluripotency factors in dysadherin-OE PLC/PRF/5 cells
Description: (§1) Cells were lysed in RIPA buffer for 20 minutes on ice, and protein concentrations were measured using a bicinchoninic acid (BCA) assay kit (Thermo Fisher Scientific). The proteins were denatured with SDS (Sigma‒Aldrich) and by boiling at 95 °C for 5 minutes. Equal amounts (10 µg) were resolved by 10% SDS-PAGE and transferred to PVDF membranes (Millipore, Burlington, MA, USA). The membranes were blocked with 10% bovine serum albumin (Sigma‒Aldrich) and incubated overnight at 4 °C with the indicated primary antibodies. […] After washing, membranes were incubated with HRP-conjugated secondary antibodies, and signals were developed using SuperSignal™ West Dura Substrate (Thermo Fisher Scientific) and visualized using a Digital 8 Imaging System (ProteinSimple, San Jose, CA, USA). The antibodies used for immunoblot analyses are listed in Supplementary Table S3.

PLC/PRF/5 cells [2] = test: Sphere formation and Aldefluor assays, dysadherin-OE PLC/PRF/5; conditions: dysadherin-OE PLC/PRF/5 cells; sphere formation, Aldefluor, CSC gene expression
Description: The ALDH enzymatic activity of the cells was determined by ALDEFLUOR kit (Stem Cell Technologies, Vancouver, BC, Canada). Flow cytometric detection of cells expressing ALDH was performed. Diethylaminobenzaldehyde (DEAB), a specific ALDH inhibitor, was utilized to stain negative control cells.
To examine their self-renewal ability, cells were seeded at various densities in poly-HEMA-coated plates (Sigma‒Aldrich, St. Louis, MO, USA) under non-adherent, sphere–forming condition. After incubation, spheres were counted and measured (n = 3/group). Sphere viability was assessed using the CellTiter-Blue Cell Viability Assay (Sigma-Aldrich) according to the manufacturer’s instructions. Fluorescence was measured at 560 nm excitation and 590 nm emission using the Varioskan LUX multimode reader (Thermo Fisher Scientific, Waltham, MA, USA).

[3] = test system: Jurkat T cells co-cultured with PLC/PRF/5 cells; test: Jurkat T-cell co-culture assay (CD69 flow cytometry, IFN-γ ELISA); conditions: Jurkat cells co-cultured with dysadherin-OE PLC/PRF/5 cells, CD3/CD28 stimulation, 24 hours
Description: The rate of T-cell activation after co-culture with the HCC cells were evaluated by direct co-culture system. The assay was performed in 24-well plates. HCC cells (1x10^4) were seeded in the plates and cultured for 24 hours to allow attachment. The cells were transfected with or without YAP5SA and treated with or without verteporfin. Following 24 hours of treatment, the tumor cells were incubated for an additional 24 hours before introducing Jurkat cells (4x10^5). After 1hour of stabilization, T-cell activation was induced by adding soluble anti-CD3 (2 μg/mL, eBioscience, San Diego, CA, USA), soluble anti-CD28 (1 μg/mL, eBioscience), and anti-mouse Ig (5 μg/mL, Southern Biotech, Birmingham, AL, USA). After 24 hours of co-culture, the supernatant was collected for an IFN-γ ELISA assay, and Jurkat cells were harvested for FACS analysis to assess T-cell activation. The cells were stained with the PE-cy7 conjugated anti-CD69 antibody in FACS buffer for at least 1hour at 4 °C in the dark and analyzed on BD AccuriTM flow cytometer and data were processed using FlowJo software.
The concentration of IFN-γ in cell-free supernatants was measured using a Human IFN-γ ELISA Kit (R&D Systems, Minneapolis, MN, USA), following the manufacturer’s instructions.

PLC/PRF/5 cells [4] = test: Clonogenic survival assay, dysadherin-OE PLC/PRF/5; conditions: dysadherin-OE PLC/PRF/5 cells; 200 cells/well, 14 days, n = 3/group
Description: A clonogenic assay was performed as previously described.[43],[44] Briefly, cells were seeded in 12-well plates (200 cells/well) and cultured for 14 days. Colonies >50 μm in diameter were counted after crystal violet staining (n = 3/group).

PLC/PRF/5 cells [5] = test: Immunosuppressive gene expression in dysadherin-OE PLC/PRF/5 cells
Description: Total RNA was isolated using RNAiso reagent (Takara, Shiga, Japan), and purity was confirmed by 260/280 and 260/230 ratios. cDNA templates were synthesized from 0.5 μg of total RNA using the PrimeScriptTM 1st strand cDNA Synthesis Kit (Takara) with random primers. qPCR was performed using Power SYBR Green PCR Master Mix and Step-One Real-time PCR systems (Applied Biosystems, Foster City, CA, USA). The primers used are listed in Supplementary Table S2.

OCT4 promoter = OCT4 promoter luciferase reporter assay; conditions: dysadherin-OE PLC/PRF/5 cells, verteporfin 1.5 μmol/L, 24 h, normalized to β-galactosidase
Description: Luciferase activity driven by the OCT4 promoter was measured using a reporter vector (GeneCopoeia, Rockville, MD, USA). For transfection, plasmid DNA, β-galactosidase control, and Lipofectamine (Sigma-Aldrich) were mixed at 1 μg:1 μg:2 μL in 300 μL of OptiMEM (Thermo Fisher Scientific, Waltham, MA, USA) medium per well. Following transfection, cells were treated with verteporfin (1.5 μmol/L) and incubated for 24 h, after which cell lysates were prepared. Luciferase readout was performed using Renilla luciferase assay system (Promega, Madison, WI, USA) and quantified with a SpectraMax L luminometer (Molecular Devices, San Jose, CA, USA). Relative luminescence values were normalized to β-galactosidase activity.

PLC/PRF/5 cells [6] = test: PD-L1 immunoblot in dysadherin-OE PLC/PRF/5 cells
Description: as §1

PLC/PRF/5 cells [7] = test: Sorafenib resistance (viability, Annexin V/PI apoptosis) in dysadherin-OE PLC/PRF/5 cells; conditions: dysadherin-OE PLC/PRF/5 cells with sorafenib
Description: The rate of cell apoptosis was quantified using apoptosis assays performed with an Annexin V-Fluorescein isothiocyanate (FITC) Apoptosis Detection Kit I. (BD Biosciences, San Jose, CA, USA). Cells were washed twice with cold PBS to yield single-cell suspensions at a concentration of 1×10⁶ cells/mL. The suspension was transferred to a tube containing 5 µL of FITC, annexin V, and propidium iodide (PI). After gentle vortexing, the mixture was incubated at room temperature for 15 min in the dark. After incubation, 400 µL of 1 x binding buffer was added to each sample prior to flow cytometry analysis. FACS analysis was performed using a BD AccuriTM flow cytometer (BD Biosciences). FACS data were analyzed using FlowJo software (TreeStar, San Carlos, CA, USA) as described in our previous report.

Compound	dysadherin-induced increase in FAK phosphorylation (PLC/PRF/5 cells [1])	dysadherin-induced increase in YAP activation (PLC/PRF/5 cells [1])	dysadherin-induced increase in pluripotency gene expression (PLC/PRF/5 cells [1])	dysadherin OE-induced suppression of LATS1/2 phosphorylation (PLC/PRF/5 cells [1]; treatment with a FAK inhibitor)	CSC features (PLC/PRF/5 cells [2])	dysadherin OE-mediated suppression of CD69 upregulation and IFN-γ release [3]	YAP activity (PLC/PRF/5 cells [1])	dysadherin OE-induced p-FAK, YAP activation and pluripotency markers (PLC/PRF/5 cells [1]; immunoblot)	clonogenicity (PLC/PRF/5 cells [4])	expression of immunosuppressive genes (PLC/PRF/5 cells [5])	OCT4 promoter activity increased by dysadherin OE (OCT4 promoter)	upregulation of PD-L1 expression by dysadherin OE (PLC/PRF/5 cells [6])	dysadherin OE-induced resistance to sorafenib (PLC/PRF/5 cells [7])
COc1ccc([C@H](CC(=O)O)N2CCN(CCCc3ccc4c(n3)NCCC4)C2=O)cn1 [MK-0429]	specifically suppressed	specifically suppressed	specifically suppressed										
CNC(=O)c1ccccc1Nc1cc(Nc2ccc(N3CCOCC3)cc2OC)ncc1C(F)(F)F [PND-1186]	specifically suppressed	specifically suppressed	specifically suppressed	reversed									
Verteporfin					suppressed	reversed	decreased	reversed these effects	suppressed	markedly reduced	suppressed	reversed	reversed
